How the values were obtained:
[1] = tested on: THP-1; test: Antiinflammatory activity in human THP1 cells assessed as inhibition of LPS-induced TNFalpha production by PLAP reporter assay; assay type: functional, cell-based
[2] = tested on: Mus musculus; test: Antiarthritic activity in po dosed BALB/c mouse collagen antibody induced arthritis model assessed as inhibition of increase of arthritis score administered qd for 2 days after collagen antibody challenge measured after 2 days; assay type: functional; conditions: 48 h
[3] = Toxicity in po dosed BALB/c mouse collagen antibody induced arthritis model assessed as tolerated dose; assay type: organism-based; conditions: in vivo
[4] = Oral bioavailability in mouse; assay type: ADME, organism-based; conditions: in vivo
[5] = species on record: Mus musculus; test: Ratio of ED50 for BALB/c mouse collagen antibody induced arthritis model to tolerated dose for BALB/c mouse collagen antibody induced arthritis model; assay type: functional
[6] = Antiinflammatory activity in human B164 cells assessed as inhibition of LPS-induced Actin production by PLAP reporter assay; assay type: functional

C[C@@H]1/C=C\C(=O)[C@@H](O)[C@@H](O)C/C=C/c2cc(NCCO)cc(O)c2C(=O)O[C@H]1C gave an IC50 [1] of 71 nM.

Compound CCNc1cc(O)c2c(c1)/C=C/C[C@H](O)[C@H](O)C(=O)/C=C\[C@@H](C)[C@H](C)OC2=O [E-6201] has an ED50 [2] of 5 mg/kg, an MTD [3] greater than 30 mg/kg and an IC50 [1] of 56 nM. For the same compound, the bioavailability [4] was 12% and the Ratio [5] was 3.

Compound C[C@@H]1/C=C\C(=O)[C@@H](O)[C@@H](O)C/C=C/c2cc(N3CCOCC3)cc(O)c2C(=O)O[C@H]1C has an IC50 [1] of 129 nM and a bioavailability [4] of 48%.

In the case of C[C@]12C=CC(=O)C=C1CC[C@@H]1[C@@H]2[C@@H](O)C[C@@]2(C)[C@H]1CC[C@]2(O)C(=O)CO [PREDNISOLONE], the ED50 [2] is reported as 3 mg/kg, the MTD [3] is reported as 10 mg/kg and the Ratio [5] is reported as 3.

For Cc1nc2c3c(c(O)cc2n1C)C(=O)O[C@@H](C)[C@H](C)/C=C\C(=O)[C@@H](O)[C@@H](O)C/C=C/3, the ED50 [2] was 10 mg/kg, the MTD [3] was less than 10 mg/kg and the IC50 [1] was 108 nM. For the same compound, the Ratio [5] was 1 and the Activity [6] was greater than 10 µM.

Work on CCCNc1cc(O)c2c(c1)/C=C/C[C@H](O)[C@H](O)C(=O)/C=C\[C@@H](C)[C@H](C)OC2=O yielded an IC50 [1] of 26 nM.

C[C@@H]1/C=C\C(=O)[C@@H](O)[C@@H](O)C/C=C/c2cc(N3CCNCC3)cc(O)c2C(=O)O[C@H]1C showed an IC50 [1] of 351 nM.

Compound CCn1cnc2c3c(c(O)cc21)C(=O)O[C@@H](C)[C@H](C)/C=C\C(=O)[C@@H](O)[C@@H](O)C/C=C/3 has an ED50 [2] of 10 mg/kg, an MTD [3] of less than 10 mg/kg and an IC50 [1] of 43 nM. It also gave a Ratio [5] of 1 and an Activity [6] greater than 10 µM.

C[C@@H]1/C=C\C(=O)[C@@H](O)[C@@H](O)C/C=C/c2cc(NCc3ccccc3)cc(O)c2C(=O)O[C@H]1C gave an IC50 [1] of 1250 nM.

In the case of CNc1cc(O)c2c(c1)/C=C/C[C@H](O)[C@H](O)C(=O)/C=C\[C@@H](C)[C@H](C)OC2=O, the ED50 [2] is reported as 5 mg/kg, the MTD [3] is reported as greater than 30 mg/kg and the IC50 [1] is reported as 85 nM. The bioavailability [4] was 29% and the Ratio [5] was 6.

CCN(CC)c1cc(O)c2c(c1)/C=C/C[C@H](O)[C@H](O)C(=O)/C=C\[C@@H](C)[C@H](C)OC2=O gave an IC50 [1] of 2070 nM.

Work on C[C@@H]1/C=C\C(=O)[C@@H](O)[C@@H](O)C/C=C/c2c(c(O)cc3c2ncn3C)C(=O)O[C@H]1C yielded an ED50 [2] of 5 mg/kg, an MTD [3] of less than 5 mg/kg and an IC50 [1] of 23 nM. It also gave a bioavailability [4] of 49%, a Ratio [5] of 1 and an Activity [6] greater than 10 µM.

C[C@@H]1/C=C\C(=O)[C@@H](O)[C@@H](O)C/C=C/c2cc(N(C)C)cc(O)c2C(=O)O[C@H]1C showed an ED50 [2] of 15 mg/kg, an MTD [3] of 60 mg/kg and an IC50 [1] of 437 nM. For the same compound, the bioavailability [4] was 21% and the Ratio [5] was 4.

For COc1ccc2c(c1)c(CC(=O)O)c(C)n2C(=O)c1ccc(Cl)cc1 [INDOMETHACIN], the ED50 [2] was 1 mg/kg, the MTD [3] was 3 mg/kg and the Ratio [5] was 3.

Work on C[C@@H]1/C=C\C(=O)[C@@H](O)[C@@H](O)C/C=C/c2cc(N)cc(O)c2C(=O)O[C@H]1C yielded an IC50 [1] of 360 nM and a bioavailability [4] of 49%.
